From the supplement of paper PMC6045584
± gives the standard deviation of the averaged measurements.

Legend:
NILOTINIB = compound: Cc1cn(-c2cc(NC(=O)c3ccc(C)c(Nc4nccc(-c5cccnc5)n4)c3)cc(C(F)(F)F)c2)cn1 [NILOTINIB]; assay: surviving fraction relative to DMSO-only wells; higher = less growth inhibition; details: exposure time: 5 days
Procedure, shortened: (§1)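 Log-phase tumour cell lines were seeded at 250–500 cells per well in 384-well plates. After 24 hours they were exposed continuously for five days to inhibitors at 0.5, 1, 5, 10, 50, 100, 500 and 1000 nM. Viability was read by CellTiter-Glo luminescence after 10 minutes at room temperature, and surviving fraction is luminescence normalised to the median of DMSO-only wells. Each line was screened three times and kept only if replicate Pearson r >0.7 and median Z' >0.3.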

BEZ-235 = compound: Cn1c(=O)n(-c2ccc(C(C)(C)C#N)cc2)c2c3cc(-c4cnc5ccccc5c4)ccc3ncc21 [BEZ-235]; assay: as above; details: exposure time: 5 days
Procedure, shortened: as §1

Test System | surviving fraction (NILOTINIB; 0.5 nM) | surviving fraction (NILOTINIB; 1 nM) | surviving fraction (NILOTINIB; 5 nM) | surviving fraction (NILOTINIB; 10 nM) | surviving fraction (NILOTINIB; 50 nM) | surviving fraction (NILOTINIB; 100 nM) | surviving fraction (NILOTINIB; 500 nM) | surviving fraction (NILOTINIB; 1000 nM) | surviving fraction (BEZ-235; 0.5 nM) | surviving fraction (BEZ-235; 1 nM) | surviving fraction (BEZ-235; 5 nM) | surviving fraction (BEZ-235; 10 nM) | surviving fraction (BEZ-235; 50 nM) | surviving fraction (BEZ-235; 100 nM) | surviving fraction (BEZ-235; 500 nM) | surviving fraction (BEZ-235; 1000 nM)
SCC47 HEADNECK | 1.07 ± 0.05 | 1.06 ± 0.045 | 1.15 ± 0.064 | 1.08 ± 0.025 | 1.041 ± 0.0046 | 1.04 ± 0.074 | 0.95 ± 0.037 | 0.932 ± 0.019 | 1.07 ± 0.091 | 1.07 ± 0.019 | 1.12 ± 0.019 | 1.11 ± 0.016 | 1.01 ± 0.092 | 0.996 ± 0.085 | 0.326 ± 0.023 | 0.33 ± 0.0059
LM7 BONE | 1.02 ± 0.027 | 0.9597 ± 0.0087 | 1.07 ± 0.03 | 1.01 ± 0.043 | 0.898 ± 0.084 | 0.957 ± 0.076 | 0.79 ± 0.02 | 0.76 ± 0.07 | 0.941 ± 0.042 | 1 ± 0.1 | 1.02 ± 0.094 | 1.07 ± 0.062 | 0.975 ± 0.077 | 0.845 ± 0.063 | 0.366 ± 0.016 | 0.312 ± 0.024
BT549 BREAST | 1.1 ± 0.15 | 0.924 ± 0.095 | 1.1 ± 0.11 | 1.12 ± 0.11 | 1.05 ± 0.11 | 0.93 ± 0.14 | 1.01 ± 0.16 | 0.964 ± 0.15 | 1.06 ± 0.11 | 1.03 ± 0.032 | 1.03 ± 0.02 | 0.763 ± 0.22 | 0.699 ± 0.016 | 0.244 ± 0.073 | 0.136 ± 0.017 | 0.247 ± 0.29
CME SYNOVIAL | 1.17 ± 0.064 | 1.15 ± 0.24 | 1.31 ± 0.15 | 1.21 ± 0.091 | 1.1 ± 0.12 | 1 ± 0.099 | 0.926 ± 0.11 | 0.483 ± 0.026 | 1.18 ± 0.12 | 1.28 ± 0.12 | 1.16 ± 0.066 | 1.26 ± 0.11 | 1.3 ± 0.11 | 1.12 ± 0.087 | 0.959 ± 0.076 | 0.713 ± 0.14
93VU HEADNECK | 1.01 ± 0.03 | 0.97 ± 0.013 | 1.1 ± 0.1 | 1.14 ± 0.058 | 0.964 ± 0.049 | 1.03 ± 0.088 | 0.938 ± 0.076 | 0.872 ± 0.057 | 0.972 ± 0.12 | 0.985 ± 0.13 | 1.1 ± 0.11 | 1.08 ± 0.059 | 0.921 ± 0.035 | 0.71 ± 0.1 | 0.308 ± 0.053 | 0.334 ± 0.043
NY BONE | 1.03 ± 0.038 | 1.04 ± 0.018 | 1.08 ± 0.025 | 1.1 ± 0.049 | 1.12 ± 0.043 | 1.12 ± 0.03 | 1.01 ± 0.06 | 1.01 ± 0.045 | 0.996 ± 0.023 | 0.987 ± 0.018 | 1.02 ± 0.048 | 1.01 ± 0.044 | 0.825 ± 0.04 | 0.769 ± 0.003 | 0.486 ± 0.022 | 0.464 ± 0.036
SUM149 BREAST | 0.884 ± 0.092 | 0.895 ± 0.024 | 0.971 ± 0.057 | 0.833 ± 0.072 | 0.898 ± 0.053 | 0.786 ± 0.061 | 0.872 ± 0.071 | 0.833 ± 0.053 | 1.11 ± 0.11 | 1.15 ± 0.044 | 1.04 ± 0.018 | 1 ± 0.059 | 0.715 ± 0.04 | 0.587 ± 0.024 | 0.153 ± 0.0052 | 0.108 ± 0.011
SCC90 HEADNECK | 0.993 ± 0.034 | 1 ± 0.02 | 1.07 ± 0.17 | 1.201 ± 0.0059 | 0.966 ± 0.13 | 0.764 ± 0.045 | 0.924 ± 0.069 | 0.867 ± 0.1 | 1.12 ± 0.06 | 1.12 ± 0.14 | 1.11 ± 0.018 | 1.03 ± 0.036 | 0.912 ± 0.066 | 0.722 ± 0.079 | 0.376 ± 0.014 | 0.288 ± 0.0071
S68 BREAST | 1 ± 0.3 | 1.1 ± 0.14 | 1.34 ± 0.29 | 1.06 ± 0.32 | 0.643 ± 0.041 | 0.846 ± 0.29 | 0.449 ± 0.18 | 0.544 ± 0.2 | 0.792 ± 0.081 | 1.01 ± 0.26 | 1.07 ± 0.13 | 1.06 ± 0.22 | 0.574 ± 0.13 | 0.273 ± 0.029 | 0.0663 ± 0.0023 | 0.0637 ± 0.0023
SJSA1 BONE | 1.73 ± 0.13 | 1.67 ± 0.1 | 1.65 ± 0.08 | 1.802 ± 0.014 | 1.56 ± 0.1 | 1.69 ± 0.04 | 1.63 ± 0.074 | 1.77 ± 0.044 | 1.07 ± 0.064 | 1.04 ± 0.05 | 1.035 ± 0.004 | 1.02 ± 0.098 | 0.803 ± 0.031 | 0.623 ± 0.013 | 0.249 ± 0.015 | 0.206 ± 0.012
MCF7 BREAST | 0.969 ± 0.072 | 0.912 ± 0.05 | 0.948 ± 0.023 | 0.943 ± 0.017 | 0.992 ± 0.064 | 0.995 ± 0.073 | 0.942 ± 0.068 | 0.97 ± 0.078 | 0.934 ± 0.071 | 0.961 ± 0.017 | 0.943 ± 0.064 | 0.941 ± 0.036 | 0.681 ± 0.023 | 0.5461 ± 0.0041 | 0.328 ± 0.012 | 0.2896 ± 0.0025
SUM44 BREAST | 1.03 ± 0.19 | 1.04 ± 0.21 | 1.08 ± 0.23 | 1.07 ± 0.15 | 0.958 ± 0.012 | 0.934 ± 0.059 | 0.943 ± 0.064 | 0.932 ± 0.083 | 1.03 ± 0.046 | 1.02 ± 0.067 | 1.04 ± 0.025 | 0.972 ± 0.021 | 0.724 ± 0.026 | 0.422 ± 0.072 | 0.104 ± 0.0081 | 0.099 ± 0.017
SIHA CERVIX | 1.03 ± 0.029 | 1.02 ± 0.029 | 1 ± 0.024 | 1.11 ± 0.04 | 1.09 ± 0.036 | 1.061 ± 0.0087 | 1.05 ± 0.055 | 1.03 ± 0.037 | 1.08 ± 0.1 | 1.14 ± 0.099 | 1.07 ± 0.044 | 1.03 ± 0.046 | 0.642 ± 0.064 | 0.485 ± 0.029 | 0.237 ± 0.008 | 0.222 ± 0.016
KPD BONE | 1.04 ± 0.097 | 0.981 ± 0.038 | 1.06 ± 0.032 | 1.02 ± 0.026 | 1.03 ± 0.03 | 1.11 ± 0.055 | 0.925 ± 0.033 | 0.841 ± 0.028 | 0.977 ± 0.065 | 1.01 ± 0.061 | 1 ± 0.024 | 0.951 ± 0.032 | 0.525 ± 0.029 | 0.361 ± 0.0087 | 0.0903 ± 0.0011 | 0.0727 ± 0.0025
HUO3N1 BONE | 0.993 ± 0.012 | 0.986 ± 0.048 | 1.12 ± 0.047 | 1.08 ± 0.038 | 0.985 ± 0.051 | 1 ± 0.041 | 1.005 ± 0.0097 | 0.936 ± 0.054 | 0.992 ± 0.041 | 1.04 ± 0.042 | 0.946 ± 0.025 | 0.994 ± 0.039 | 0.838 ± 0.071 | 0.631 ± 0.031 | 0.341 ± 0.0053 | 0.258 ± 0.0061
YAMATO SYNOVIAL | 1.18 ± 0.14 | 1.22 ± 0.016 | 1.28 ± 0.064 | 1.26 ± 0.1 | 1 ± 0.05 | 0.94 ± 0.096 | 0.771 ± 0.024 | 0.658 ± 0.031 | 1.28 ± 0.087 | 1.26 ± 0.12 | 1.34 ± 0.084 | 1.12 ± 0.048 | 0.923 ± 0.043 | 0.849 ± 0.12 | 0.47 ± 0.038 | 0.429 ± 0.016
ASKA SYNOVIAL | 1.13 ± 0.033 | 1.02 ± 0.11 | 1.145 ± 0.0067 | 1.15 ± 0.036 | 1.08 ± 0.08 | 0.988 ± 0.088 | 0.936 ± 0.083 | 0.864 ± 0.066 | 1.06 ± 0.03 | 0.994 ± 0.023 | 0.896 ± 0.032 | 0.9767 ± 0.0031 | 0.775 ± 0.046 | 0.652 ± 0.016 | 0.418 ± 0.02 | 0.436 ± 0.019
MDAMB436 BREAST | 0.905 ± 0.076 | 1 ± 0.088 | 1 ± 0.017 | 0.964 ± 0.057 | 0.82 ± 0.087 | 0.915 ± 0.033 | 0.904 ± 0.03 | 0.78 ± 0.051 | 0.94 ± 0.084 | 0.898 ± 0.085 | 0.876 ± 0.078 | 0.852 ± 0.088 | 0.545 ± 0.016 | 0.51 ± 0.047 | 0.392 ± 0.022 | 0.356 ± 0.013
A549 LUNG | 1.06 ± 0.018 | 1.042 ± 0.01 | 1.11 ± 0.024 | 1.08 ± 0.037 | 1.1 ± 0.03 | 1.13 ± 0.045 | 1.08 ± 0.028 | 1.11 ± 0.043 | 0.997 ± 0.054 | 1.01 ± 0.052 | 1.01 ± 0.074 | 1.01 ± 0.083 | 1.03 ± 0.033 | 0.66 ± 0.022 | 0.26 ± 0.022 | 0.221 ± 0.0093
PCI30 HEADNECK | 0.952 ± 0.075 | 0.888 ± 0.045 | 1.04 ± 0.06 | 1.01 ± 0.05 | 0.921 ± 0.072 | 0.871 ± 0.056 | 1.08 ± 0.073 | 0.965 ± 0.063 | 0.955 ± 0.089 | 1.07 ± 0.066 | 1.07 ± 0.063 | 1.07 ± 0.082 | 0.83 ± 0.15 | 0.549 ± 0.011 | 0.343 ± 0.014 | 0.29 ± 0.014
